The record followed here is patent US9981956B2, “Small molecule inhibitors of fibrosis” (THE CALIFORNIA INSTITUTE FOR BIOMEDICAL RESEARCH, priority 2013, dated 2018).

≈ marks a conversion by molar mass, not a printed value. Where “and” joins values, the source holds several entries; their conditions need not be identical. Equal values may be shown once. Read-outs that look alike come from different tables or passages of the source. Some results are limits rather than exact numbers.

Assay [1] relates to fibroblast to myofibroblast transdifferentiation (primary human lung fibroblasts and primary rodent HSCs). Kind of assay: High content imaging and western based assay of fibroblast to myofibroblast transdifferentiation (α-SMA). The assay is classed as cell-based. To be noted: graded, TGF-β induced fibroblast to myofibroblast transdifferentiation. An excerpt: A high content imaging assay, based on α-SMA staining and cell morphological changes associated with fibroblast to myofibroblast transdifferentiation, was established using primary human lung fibroblasts and primary rodent HSCs. Conditions, involving serum starvation and subsequent TGF-β treatment, were identified that facilitate robust in vitro transdifferentiation in a miniaturized (384 well plate) format that is amenable to high throughput small molecule screening. A selective ALK-5 TGF-β1 receptor inhibitor (SB-431542) was used as a positive control. […] This assay was used to identify a hit compound (itraconazole) and was used to evaluate focused panels of itraconazole analogues generated from medicinal chemistry efforts.
The activity of Itraconazole and its analogues was confirmed by analyzing changes in gene expression of multiple genes associated with fibroblast to myofibroblast transdifferentiation using biochemical methods (i.e., Western blot and RT-PCR). These 4-day assays were used to evaluate sets of 6 compounds at a time in 4-point dose response fashion.
After 24 hour incubation, cells were treated with the indicated doses of itraconazole for 48 hours in the presence of 10 ng/mL of TGF-β1 in hepatic stellate medium. Following fixation and staining with an anti smooth muscle actin antibody, cell morphology was analyzed with a Cellomics cell insight imaging reader (FIG. 1 for representative images). Cells were analyzed for mean cellular area of a-SMA staining (FIG. 5a) or mean fluorescence intensity of SMA staining (FIG. 5b).
After 24 incubation, medium was changed to assay medium containing TGF-β1 (10 ng/mL) and simultaneously treated with itraconazole (10 μM), SB431542 (10 μM) or vehicle control (FIG. 6).

The target of a further assay is Cyp3A4 (Homo sapiens, UniProt P08684). Kind of assay: Cyp reversible inhibition assay (human liver microsomes). As to the method:
The purpose of this assay was to determine reversible inhibition of Cyp enzyme with a given compound using a substrate probe turnover as the surrogate for inhibition. This was done with human liver microsomes rather an isolated enzyme to account for metabolites of parent drug leading to a potential drug-drug interaction through Cyp inhibition. The substrate turnover (for example conversion of midazolam to hydroxyl midazolam) was monitored by LCMSMS (Q1/Q2=342.2/203.2). Test compounds were tested in a 7-point dose response curve starting from 50 μM to 50 nM (˜3-fold dilution series).
The detailed protocol was as follows: • Prepared test compounds and standard inhibitors working solution (100×) • Pulled microsomes out of the −80° C. freezer to thaw on ice, labeled with the date and put back to freezer immediately after using. • Added 20 μL of the substrate solutions to corresponding wells. • Added 20 μL PB to Blank wells. • Added 2 μL of the test compounds and positive control working solution to corresponding wells. • Added 2 μL MeOH to No Inhibitor wells and Blank wells. • Prepared HLM working solution. • Added 158 μL of the HLM working solution to all wells of incubation plate. • Pre-warmed the plate for about 10 min at 37° C. water bath. • Prepared NADPH cofactor solution. • Added 20 μL NADPH cofactor to all incubation wells. • Mixed and incubated for 10 minutes at 37° C. water bath. • At the time point, terminated the reaction by adding 400 μL cold stop solution (200 ng/mL Tolbutamide in ACN). • Centrifuged the samples at 4000 rpm for 20 minutes to precipitate protein. • Transferred 200 μL supernatant to 200 μL HPLC water and shook for 10 min. • Analyzed samples by LC/MS/MS.

The test system of assay [2] is Candida albicans (ATCC 10231). Kind of assay: Candida albicans anti-fungal MIC potency determination. The assay is classed as cell-based. As to the method: The wild type Candida albicans (ATCC 10231) was used and Fluconazole, amphotericin B, itraconazole and terbinafine were purchased from Sigma and used as positive controls.
The highest assay concentration for all test compounds and fluconazole was 100 μM. Fluconazole was also tested at the highest concentration of 64 μg/ml, and amphotercin B and terbinafine at 16 and 64 μg/ml. The test compounds were in DMSO stock solution at a concentration of 10 mM. Two stock solutions in DMSO were prepared for fluconazole at 10 mM and 6.4 mg/ml. Amphotericin B and terbinafine stock solutions in DMSO were prepared at 1.6 and 6.4 mg/ml.
Serial dilution of 100× stock solutions: 4 μl of stock solution was added into 196 μl of RPMI1640 (MOPS buffered and free of HEPES and sodium bicarbonate) in the first well of a row of a sterile u-bottom 96-well plate. The rest of the wells was filled with 100 μl RPMI1640. The 2-fold serial dilution was made sequentially by transferring 100 μl solution to the next well and mixing by pipetting, until 11th well. The extra 100 μl in 11th well was discarded. Therefore, the compound wells contained 100 μl of 2× of testing concentrations of drugs in RPMI1640. The 12th well was filled with only 100 μl RPMI1640.
C. albicans 3147 (ATCC 10231) glycerol frozen stock was streaked on Sabouraud dextrose agar (SDA). The plate was incubated at 35° C. ambient atmosphere for 20 h. Single colonies were suspended into sterile saline until turbidity reached 0.1 (1-5×10^6 CFU/ml) using a Siemens turbidity meter. This suspension was diluted 50× in RPMI1640 in a 15 ml conical, and then it was further diluted 20× in RPMI1640 in a 50 ml conical. This gave 1-5×10^3 CFU/ml suspension and was used as inoculum. The cell density in inoculum was plate-counted to be 4.94×10^3 CFU/ml.
The plates were incubated at 35° C. in ambient atmosphere. The photos were taken at 24 h and 48 h. The MIC end points for fluconazole and amphotericin B were read according to the M27-A3 protocol (Reference Method for Broth Dilution Antifungal Susceptibility Testing of Yeasts; Approved Standard-Third Edition, M27-A3 standard published Jan. 1, 2008 by Clinical and Laboratory Standards Institute). The MIC for compounds for test cmpds and terbinafine (not mentioned in M27-A3 protcol) were read as if they were azoles.

The mark [3] stands for this setting: Cyp 3A4 midazolam LCMS IC50, human liver microsomes, substrate midazolam.
Where [4] appears, read: Cyp 3A4 testosterone LCMS IC50, human liver microsomes, substrate testosterone.
Where [5] appears, read: ATCC10231, 24 h, read-out: C. Albicans MIC90 at 24 h.
[6] abbreviates: ATCC10231, 48 h, read-out: C. Albicans MIC90 at 48 h.

Sequence of Cyp3A4 (P08684 whole entry): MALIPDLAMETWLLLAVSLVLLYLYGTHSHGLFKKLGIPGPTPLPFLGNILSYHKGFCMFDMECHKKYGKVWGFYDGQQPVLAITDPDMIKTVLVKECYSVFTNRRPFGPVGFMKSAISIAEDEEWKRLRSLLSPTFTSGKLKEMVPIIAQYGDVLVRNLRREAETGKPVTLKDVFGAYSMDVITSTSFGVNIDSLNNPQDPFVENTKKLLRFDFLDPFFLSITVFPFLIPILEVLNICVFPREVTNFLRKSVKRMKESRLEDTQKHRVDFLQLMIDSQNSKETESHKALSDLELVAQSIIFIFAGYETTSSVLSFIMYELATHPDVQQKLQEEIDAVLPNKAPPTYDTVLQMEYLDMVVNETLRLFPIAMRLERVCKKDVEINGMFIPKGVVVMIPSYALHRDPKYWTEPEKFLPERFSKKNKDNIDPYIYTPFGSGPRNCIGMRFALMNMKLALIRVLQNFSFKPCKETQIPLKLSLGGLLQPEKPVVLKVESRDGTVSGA

`CCC(C)n1ncn(-c2ccc(N3CCN(c4ccc(OC[C@@H]5CO[C@@](Cc6cncnc6)(c6ccc(Cl)cc6Cl)O5)cc4)CC3)cc2)c1=O` (stereo partly drawn) [Compound 21] displayed an EC50 in assay [1] of 0.5 to 5 µM. In addition, the IC50 at Cyp3A4 (setting [3]) came to 0.144 µM; against Cyp3A4 (setting [4]), 0.12 µM. For the same compound, the MIC90 in assay [2] (setting [5]) and in assay [2] (setting [6]) was greater than 100 µM throughout.
As for `CCC(C)n1ncn(-c2ccc(N3CCN(c4ccc(OC[C@@H]5CO[C@@](Cn6nccn6)(c6ccc(Cl)cc6Cl)O5)c(F)c4)CC3)cc2)c1=O` (stereo partly drawn) [Compound 49], the EC50 in assay [1] lay within 0.5 to 5 µM. Besides, the IC50 against Cyp3A4 (setting [3]) and on Cyp3A4 (setting [4]) was greater than 50 µM each time. Further, the MIC90 in assay [2] (setting [5]) and in assay [2] (setting [6]) was greater than 100 µM throughout.
In the case of `CCC(C)n1ncn(-c2ccc(N3CCN(c4ccc(OC[C@@H]5CO[C@@](Cc6ccnnc6)(c6ccccc6)O5)cc4)CC3)cc2)c1=O` (stereo partly drawn) [Compound 84], the concentration giving a half-maximal response (EC50) in assay [1] lay within 0.5 to 5 µM. In addition, the IC50 was 2.55 µM and 2.35 µM against Cyp3A4 (setting [3]); 1.77 µM on Cyp3A4 (setting [4]). In addition, the MIC90 in assay [2] (setting [5]) and in assay [2] (setting [6]) was greater than 100 µM in each case.
The compound `CCC(C)n1ncn(-c2ccc(N3CCN(c4ccc(OC[C@@H]5CO[C@@](CCn6cncn6)(c6ccc(Cl)cc6Cl)O5)cc4)CC3)cc2)c1=O` (stereo partly drawn) [Compound 100] showed an EC50 in assay [1] of less than 0.5 µM. Also, the IC50 against Cyp3A4 (setting [3]) is 0.372 µM; against Cyp3A4 (setting [4]), 0.545 µM. Besides, the MIC90 in assay [2] (setting [5]) was 0.781 µM (≈ 0.562 µg/mL); in assay [2] (setting [6]) it was 1.56 µM (≈ 1.12 µg/mL).
Take `CCC(C)n1cnn(-c2ccc(N3CCN(c4ccc(OC[C@@H]5CO[C@@](Cn6ccnn6)(c6ccc(F)cc6F)O5)cc4)CC3)cc2)c1=O` (stereo partly drawn) [Compound 2]: the EC50 in assay [1] lay within 0.5 to 5 µM. The compound further gave an IC50 against Cyp3A4 (setting [4]) greater than 30 µM.
`CCC(C)n1ncn(-c2ccc(N3CCN(c4ccc(OC[C@@H]5CO[C@@](Cn6nccn6)(c6ccccc6C#N)O5)cc4)CC3)cc2)c1=O` (stereo partly drawn) [Compound 74]: the concentration for a half-maximal effect (EC50) in assay [1] lay in the range of 0.5 to 5 µM. Further, the IC50 against Cyp3A4 (setting [3]) and against Cyp3A4 (setting [4]) was greater than 50 µM throughout.
Turning to `CCC(C)n1ncn(-c2ccc(N3CCN(c4ccc(OC[C@@H]5CO[C@@](Cn6nccn6)(c6ccc(Cl)cc6Cl)O5)cc4)CC3)nc2)c1=O` (stereo partly drawn) [Compound 24], the EC50 in assay [1] fell in the range of 0.5 to 5 µM. On Cyp3A4 (setting [4]), this compound had an IC50 greater than 30 µM.
Regarding `CCc1cc(N2CCN(c3ccc(-n4cnn(C(C)CC)c4=O)cc3)CC2)ccc1OC[C@@H]1CO[C@@](Cn2nccn2)(c2ccc(Cl)cc2Cl)O1` (stereo partly drawn) [Compound 80], the EC50 in assay [1] lay in the range of 5 to 30 µM.
The same measure, in the same setting: with `CCC(C)n1ncn(-c2ccc(N3CCN(c4ccc(OC[C@@H]5CO[C@@](Cn6nccn6)(c6cccnc6)O5)cc4)CC3)cc2)c1=O` (stereo partly drawn) [Compound 82] the figure was 5 to 30 µM.
On to `CCC(C)n1ncn(-c2ccc(N3CCN(c4ccc(OC[C@@H]5CO[C@@](Cn6nccn6)(c6ccc(Cl)cc6Cl)O5)cc4C#N)CC3)cc2)c1=O` (stereo partly drawn) [Compound 52], for which the EC50 in assay [1] lay in the range of 0.5 to 5 µM.
Compound `CC(C)Cn1ncn(-c2ccc(N3CCN(c4ccc(OC[C@@H]5CO[C@@](Cn6cncn6)(c6ccc(F)cc6F)O5)cc4)CC3)cc2)c1=O` [Compound 14] showed an EC50 in assay [1] of 5 to 30 µM.
On the same count and under the same terms, with `CCC(C)n1ncn(-c2ccc(N3CCN(c4ccc(OC[C@@H]5CO[C@](Cn6nc7ccccc7n6)(c6ccc(Cl)cc6Cl)O5)cc4)CC3)cc2)c1=O` (mixture of isomers) [Compound 17] the figure was 5 to 30 µM; with `CCC(C)n1ncn(-c2ccc(N3CCN(c4ccc(OC[C@@H]5CO[C@@](Cn6nccn6)(c6cc(Cl)cc(Cl)c6)O5)cc4)CC3)cc2)c1=O` (stereo partly drawn) [Compound 31], 0.5 to 5 µM; with `CCC(C)n1ncn(-c2ccc(N3CCN(c4ccc(OC[C@@H]5CO[C@@](Cn6nccn6)(c6ccc(Cl)cc6Cl)O5)cc4C)CC3)cc2)c1=O` (stereo partly drawn) [Compound 50], 0.5 to 5 µM.
Consider `CCC(C)n1ncn(-c2ccc(N3CCN(c4ccc(OC[C@@H]5CO[C@@](Cn6nccn6)(c6ccc(C(F)(F)F)cc6)O5)cc4)CC3)cc2)c1=O` (stereo partly drawn) [Compound 38], for which, in assay [1], the EC50 fell in the range of 0.5 to 5 µM.
`CCC(C)n1ncn(-c2ccc(N3CCN(c4ccc(OC[C@@H]5CO[C@@](Cn6nccn6)(c6ccc(Cl)cc6Cl)O5)c(OC)c4)CC3)cc2)c1=O` (stereo partly drawn) [Compound 47]: the 50% effective concentration (EC50) in assay [1] was in the range of 5 to 30 µM.
In turn, `CCC(C)n1cnn(-c2ccc(N3CCN(c4ccc(OC[C@@H]5CO[C@@](Cn6cncn6)(c6ccc(F)cc6F)O5)cc4)CC3)cc2)c1=O` (mixture of isomers) [Compound 1] registered a half-maximal effective concentration (EC50) in assay [1] of 0.5 to 5 µM. Also, half-maximal inhibition on Cyp3A4 (setting [4]) (IC50) required 4.5 µM.
Compound `CCC(C)n1ncn(-c2ccc(N3CCN(c4ccc(OC[C@@H]5CO[C@@](Cn6nccn6)(c6ncccn6)O5)cc4)CC3)cc2)c1=O` (stereo partly drawn) [Compound 56] registered a concentration giving a half-maximal response (EC50) in assay [1] of 5 to 30 µM.
On the same count and under the same terms, with `CCC(C)n1ncn(-c2ccc(N3CCN(c4ccc(OC[C@@H]5CO[C@@](Cn6nccn6)(C(C)C)O5)cc4)CC3)cc2)c1=O` (stereo partly drawn) [Compound 90] the figure was 5 to 30 µM; with `CCC(C)n1cnn(-c2ccc(N3CCN(c4ccc(OC[C@@H]5CO[C@@](Cn6nc7ccccc7n6)(c6ccc(F)cc6F)O5)cc4)CC3)cc2)c1=O` (stereo partly drawn) [Compound 12], 5 to 30 µM; with `CCC(C)n1ncn(-c2ccc(N3CCN(c4ccc(OC[C@@H]5CO[C@@](Cn6nccn6)(c6ccc(Cl)cc6Cl)O5)c(C)c4)CC3)cc2)c1=O` (stereo partly drawn) [Compound 46], 5 to 30 µM.
The same measure, in the same setting: with `CCC(C)n1ncn(-c2ccc(N3CCN(c4ccc(OC[C@@H]5CO[C@@](Cn6nccn6)(c6nccs6)O5)cc4)CC3)cc2)c1=O` (stereo partly drawn) [Compound 78] the figure was 5 to 30 µM.
For the compound `CCC(C)n1ncn(-c2ccc(N3CCN(c4ccc(OC[C@@H]5CO[C@@](CCCn6cncn6)(c6ccc(Cl)cc6Cl)O5)cc4)CC3)cc2)c1=O` (stereo partly drawn) [Compound 101], the EC50 in assay [1] fell in the range of 5 to 30 µM. Also, the MIC90 in assay [2] (setting [5]) and in assay [2] (setting [6]) was greater than 100 µM each time.
In assay [1], `CCC(C)n1ncn(-c2ccc(N3CCN(c4ccc(OC[C@@H]5CO[C@@](Cn6nccn6)(c6ccc(Cl)cc6Cl)O5)cc4)CC3)cn2)c1=O` (stereo partly drawn) [Compound 25] displayed an EC50 of 5 to 30 µM.
Turning to `CCC(C)n1ncn(-c2ccc(N3CCN(c4ccc(OC[C@@H]5CO[C@@](Cn6cnc7ccccc76)(c6ccc(Cl)cc6Cl)O5)cc4)CC3)cc2)c1=O` (stereo partly drawn) [Compound 20], the concentration for a half-maximal effect (EC50) in assay [1] was in the range of 0.5 to 5 µM.
